Measurements taken from patent publication US12552771B2, “Carboxylic acid containing azetidinyl compounds for the treatment of neurodegenerative diseases” (Celgene Corporation, priority 2021, dated 2026).

Molecular target: T1, S1P5 receptors (Homo sapiens, UniProt Q9H228)
T1 construct: expressed in transfected cells; host or cells: CHO cells (membranes)
Test: [35S]-GTPγS binding assay with CHO-S1P5 receptor membranes
Assay type: biochemical
Details: membranes of CHO cells expressing recombinant S1P5 receptors; measure of S1P5 agonism
Summary of the method: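 Membranes from CHO cells expressing recombinant S1P5 were preincubated for 30 min at RT with compound, GDP and WGA SPA beads. The buffer was 20 mM HEPES, 10 mM MgCl2, 100 mM NaCl, 1 mM EDTA, 0.1% fatty-acid-free BSA and 30 μg/mL saponin, pH 7.4. [35S]GTPγS (200 pM final) was added for 40 min, and bound radioactivity read as agonism; S1P was the control.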

T1 sequence (Q9H228 whole entry): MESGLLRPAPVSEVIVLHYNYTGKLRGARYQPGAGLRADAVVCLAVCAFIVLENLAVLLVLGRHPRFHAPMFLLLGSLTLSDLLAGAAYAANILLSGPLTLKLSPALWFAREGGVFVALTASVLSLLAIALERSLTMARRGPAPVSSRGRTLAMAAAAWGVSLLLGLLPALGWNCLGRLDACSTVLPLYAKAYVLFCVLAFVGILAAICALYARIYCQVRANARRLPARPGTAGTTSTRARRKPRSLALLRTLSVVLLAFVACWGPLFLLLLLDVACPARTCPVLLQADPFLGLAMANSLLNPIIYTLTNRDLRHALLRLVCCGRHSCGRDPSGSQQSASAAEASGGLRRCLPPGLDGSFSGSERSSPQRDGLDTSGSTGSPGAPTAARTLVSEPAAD

Row | EC50 [nM] | Structure (SMILES)
1 | ≤ 10 | Cc1cc(C2CN(c3c(C)cccc3Cl)C2)cc(C)c1CN1CCC(C(=O)O)CC1 [Compound 67, 1-(4-(1-(2-chloro-6-methylphenyl)azetidin-3-yl)-2,6-dimethylbenzyl)-piperidine-4-carboxylic acid]
2 | 100 to 1000 | O=C(O)C1CCN(Cc2ccc(N3CC(c4c(F)cccc4F)C3)cc2)CC1 [Compound 27, 1-(4-(3-(2,6-difluorophenyl)azetidin-1-yl)benzyl)piperidine-4-carboxylic acid]
3 | 1000 to 10000 | O=C(O)C1CCN(Cc2ccc(N3CC(F)(c4c(Cl)cccc4Cl)C3)cc2)CC1 [Compound 35, 1-(4-(3-(2,6-dichlorophenyl)-3-fluoroazetidin-1-yl)benzyl)piperidine-4-carboxylic acid]
4 | 10 to 100 | O=C(O)C1CCN(Cc2ccc(N3CC(c4c(Cl)cccc4Cl)C3)cc2)CC1 [Compound 24, 1-(4-(3-(2,6-dichlorophenyl)azetidin-1-yl)benzyl)piperidine-4-carboxylic acid]
5 | 100 to 1000 | Cc1cc(C2CN(c3c(Cl)cccc3Cl)C2)ncc1CN1CCC(C(=O)O)CC1 [Compound 78, 1-((6-(1-(2,6-dichlorophenyl)azetidin-3-yl)-4-methylpyridin-3-yl)methyl)-piperidine-4-carboxylic acid]
6 | ≤ 10 | CCc1cc(C2CN(c3c(Cl)cccc3Cl)C2)cc(C)c1CN1CCC(C(=O)O)CC1 [Compound 55, 1-(4-(1-(2,6-dichlorophenyl)azetidin-3-yl)-2-ethyl-6-methylbenzyl)-piperidine-4-carboxylic acid]
7 | 10 to 100 | O=C(O)C1CCN(Cc2ccc(C3CN(c4c(Cl)cccc4Cl)C3)nc2)CC1 [Compound 21, 1-((6-(1-(2,6-dichlorophenyl)azetidin-3-yl)pyridin-3-yl)methyl)piperidine-4-carboxylic acid]
8 | 10 to 100 | Cc1cc(C2CN(c3c(F)cccc3F)C2)cc(C)c1CN1CCC(C(=O)O)CC1 [Compound 44, 1-(4-(1-(2,6-difluorophenyl)azetidin-3-yl)-2,6-dimethylbenzyl)piperidine-4-carboxylic acid]
